Literature values as cited in patent publication US4686282A, “Immunotherapeutic polypeptide agents which block immune complex binding to immunoglobulin Fc receptors” (Immunetech, Inc., priority 1983, dated 1987).
Ends that are not written are not given here.

How the values were obtained:
[1] = test system: granulocytes, monocytes and macrophages; details: in vitro; literature
[2] = target: C1 (Homo sapiens, UniProt P02745+P02746+P02747); details: compared with intact monomeric IgG; Prystowsky et al. 1981, Lukas et al. 1981
Chain of C1 (P02745 23-245): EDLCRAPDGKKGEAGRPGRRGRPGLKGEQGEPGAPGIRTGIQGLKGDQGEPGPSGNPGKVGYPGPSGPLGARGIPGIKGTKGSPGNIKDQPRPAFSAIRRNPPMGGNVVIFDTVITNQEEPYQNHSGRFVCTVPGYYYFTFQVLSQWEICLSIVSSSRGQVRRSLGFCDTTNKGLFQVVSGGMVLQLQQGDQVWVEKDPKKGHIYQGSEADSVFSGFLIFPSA
Chain of C1 (P02746 28-253): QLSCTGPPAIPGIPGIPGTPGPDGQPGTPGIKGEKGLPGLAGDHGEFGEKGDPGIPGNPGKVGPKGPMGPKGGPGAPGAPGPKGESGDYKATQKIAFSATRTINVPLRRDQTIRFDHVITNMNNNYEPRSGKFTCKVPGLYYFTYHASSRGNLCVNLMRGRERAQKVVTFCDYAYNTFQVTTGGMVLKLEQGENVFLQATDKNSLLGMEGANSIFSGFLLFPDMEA
Chain of C1 (P02747 29-245): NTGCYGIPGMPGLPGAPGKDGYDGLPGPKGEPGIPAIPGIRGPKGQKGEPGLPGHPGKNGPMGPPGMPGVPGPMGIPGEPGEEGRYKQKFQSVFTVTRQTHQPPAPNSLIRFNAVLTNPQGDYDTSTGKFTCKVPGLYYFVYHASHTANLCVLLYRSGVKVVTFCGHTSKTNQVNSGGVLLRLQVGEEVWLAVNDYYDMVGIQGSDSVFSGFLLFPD
Chain of C1 (P00736 18-705 partner): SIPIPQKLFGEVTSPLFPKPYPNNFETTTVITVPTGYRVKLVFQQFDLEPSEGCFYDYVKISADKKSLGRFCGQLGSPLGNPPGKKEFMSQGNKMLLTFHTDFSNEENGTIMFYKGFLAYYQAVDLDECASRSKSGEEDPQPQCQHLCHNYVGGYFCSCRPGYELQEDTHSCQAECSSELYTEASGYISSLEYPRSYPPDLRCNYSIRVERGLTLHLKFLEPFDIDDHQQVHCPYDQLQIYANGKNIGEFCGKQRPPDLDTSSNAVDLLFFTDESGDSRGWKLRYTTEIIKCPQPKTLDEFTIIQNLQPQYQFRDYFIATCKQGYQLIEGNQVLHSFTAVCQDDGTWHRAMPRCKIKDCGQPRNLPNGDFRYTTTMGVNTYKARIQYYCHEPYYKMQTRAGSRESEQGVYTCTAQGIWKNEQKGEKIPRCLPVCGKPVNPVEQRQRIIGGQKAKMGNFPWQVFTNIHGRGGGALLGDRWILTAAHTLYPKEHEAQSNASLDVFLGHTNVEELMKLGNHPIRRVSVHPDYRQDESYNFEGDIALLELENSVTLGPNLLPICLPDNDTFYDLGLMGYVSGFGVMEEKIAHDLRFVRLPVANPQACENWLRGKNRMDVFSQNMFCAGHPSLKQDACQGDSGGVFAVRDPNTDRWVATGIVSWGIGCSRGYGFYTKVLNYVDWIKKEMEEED
Chain of C1 (P09871 16-688 partner): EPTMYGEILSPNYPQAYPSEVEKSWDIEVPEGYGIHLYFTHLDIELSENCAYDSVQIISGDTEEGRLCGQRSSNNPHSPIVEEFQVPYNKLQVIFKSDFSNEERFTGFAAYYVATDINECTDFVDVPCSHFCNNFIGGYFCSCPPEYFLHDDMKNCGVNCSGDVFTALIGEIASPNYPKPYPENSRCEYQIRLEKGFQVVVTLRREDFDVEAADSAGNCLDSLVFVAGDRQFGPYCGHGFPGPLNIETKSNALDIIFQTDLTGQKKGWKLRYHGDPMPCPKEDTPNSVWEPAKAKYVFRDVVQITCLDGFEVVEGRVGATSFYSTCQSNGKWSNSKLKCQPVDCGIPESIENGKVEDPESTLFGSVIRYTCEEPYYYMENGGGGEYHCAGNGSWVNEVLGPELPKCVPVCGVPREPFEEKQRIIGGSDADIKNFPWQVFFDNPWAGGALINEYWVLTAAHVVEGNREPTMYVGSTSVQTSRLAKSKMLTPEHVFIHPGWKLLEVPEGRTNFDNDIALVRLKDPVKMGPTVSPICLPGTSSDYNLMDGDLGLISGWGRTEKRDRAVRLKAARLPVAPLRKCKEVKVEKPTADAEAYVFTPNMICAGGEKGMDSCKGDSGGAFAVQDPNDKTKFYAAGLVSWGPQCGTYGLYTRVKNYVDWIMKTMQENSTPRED

[3] = test system: human monocyte IgG Fc receptors
[4] = test system: local cutaneous allergic reaction (Prausnitz-Kustner); details: Hamburger 1975
[5] = target: T1, IgE Fc receptor of human basophils (Homo sapiens, UniProt P12319); details: Plummer et al. 1983
T1 construct: host or cells: human basophils
T1 sequence (P12319 26-257): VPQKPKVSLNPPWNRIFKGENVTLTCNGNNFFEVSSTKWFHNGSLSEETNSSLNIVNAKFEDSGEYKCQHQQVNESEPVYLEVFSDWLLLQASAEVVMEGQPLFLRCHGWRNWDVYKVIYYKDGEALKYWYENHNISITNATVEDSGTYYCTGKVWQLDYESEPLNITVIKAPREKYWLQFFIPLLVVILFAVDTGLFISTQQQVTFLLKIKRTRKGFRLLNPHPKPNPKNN
T1 sequence (Q01362 1-244 partner): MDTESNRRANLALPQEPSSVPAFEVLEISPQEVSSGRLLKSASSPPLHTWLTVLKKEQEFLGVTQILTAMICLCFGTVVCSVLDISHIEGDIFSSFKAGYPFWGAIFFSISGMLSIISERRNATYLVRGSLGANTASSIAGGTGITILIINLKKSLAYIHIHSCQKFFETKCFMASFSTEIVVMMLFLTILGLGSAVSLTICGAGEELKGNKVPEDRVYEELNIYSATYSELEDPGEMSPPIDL
T1 sequence (P30273 19-86 partner): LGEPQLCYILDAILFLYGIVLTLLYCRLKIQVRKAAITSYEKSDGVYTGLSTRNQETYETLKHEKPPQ

[6] = humans, injection by the subcutaneous route
[7] = test system: human and rodent mast cells; details: Stanworth et al. 1979
[8] = test system: lymphocytes; details: Morgan, Huguli and Weigle 1982

## Thr-Lys-Pro-Arg (TKPR; printed: Thr-Lys-Pro-Arg) [Tuftsin]
[1]
  phagocytosis stimulating ability: active at nanomolar concentrations
[2]
  inhibitors of C1-mediated hemolysis: less active
[3]; Ratcliffe and Stanworth 1982 and ourselves
  inhibits human IgG binding to human monocyte IgG Fc receptors: competitively inhibits

## Val-Gln-Val-His-Asn-Ala-Lys-Thr-Lys-Pro-Arg-OH (VQVHNAKTKPR-OH)
[2]
  inhibitors of C1-mediated hemolysis: approximately as active as inhibitors as intact monomeric IgG

## GVQVHNAKTK
[2]
  inhibitors of C1-mediated hemolysis: approximately as active as inhibitors as intact monomeric IgG

## Asp-Ser-Asp-Pro-Arg (DSDPR; printed: Asp-Ser-Asp-Pro-Arg)
[4]
  inhibit a local cutaneous allergic reaction (Prausnitz-Kustner): approximately 90%
[5]
  block human IgE binding to basophil IgE Fc receptors: up to 70%
[6]
  inhibit systemic allergic disease: inhibit systemic allergic disease

## PRKTKGSGFFVF
[7]
  degranulation of human and rodent mast cells: able to cause degranulation

## QYDSTYR
[3]; Ratcliffe and Stanworth 1982
  block IgG binding to human monocyte IgG Fc receptors: slightly block

## TISKAKGQPREPQVYTLPSREEM
[8]
  nonspecific activation of lymphocytes: ability to nonspecifically activate lymphocytes

## Ac-Phe-Asn-Trp-Tyr-Val (Ac-FNWYV)
[2]
  inhibitors of C1-mediated hemolysis: less active

## FNWYVDGVQVHNAKTK
[2]
  inhibitors of C1-mediated hemolysis: less active
